{"source": "patent US5658917A", "about": "“Isoquinolines having adenosine uptake inhibitor activity” (Kyowa Hakko Kogyo Co., Ltd., priority 1993, dated 1997)", "key": {"[1]": {"system": "[^3 H]-adenosine uptake by washed erythrocytes", "test": "Inhibitory effect on [^3 H]-adenosine uptake (washed erythrocytes)", "type": "cell-based, human (healthy male adult)", "conditions": "Erythrocyte; human washed erythrocytes; 1 hour preincubation at room temperature; 10 seconds uptake; read-out: [^3 H]-Adenosine Uptake Inhibition IC50", "method": "Test Example 1 Inhibitory Effect on [^3 H]-Adenosine Uptake\n[…] To 100 μl of an erythrocyte suspension (2.5×10^9 /ml) was added 10 μl of a 21% DMSO solution of a test compound. After allowing the suspension to stand at room temperature for 1 hour, 100 μl of a [^3 H]-adenosine solution was added thereto. Ten seconds later, 200 μl of a dilazep solution (1 mg/ml) was added to stop the reaction. The erythrocytes were dissolved in Triton X-100, and the uptake amount of ^3 H was measured with a liquid scintillation counter. The concentration of the test compound which inhibits the [^3 H]-adenosine uptake by 50% (IC50) was calculated."}, "[2]": {"target": "T1, [^3 H]-Nitrobenzylthioinosine (NBI) binding, cerebral cortex tissue homogenate (Cavia porcellus, UniProt H0V4R7)", "T1 construct": "The cerebral cortex of a male guinea pig of Hartley strain was homogenized; from tissue; host or cells: guinea pig (male, Hartley strain) cerebral cortex, washed membrane suspension", "T1 sequence (H0V4R7 1-461)": "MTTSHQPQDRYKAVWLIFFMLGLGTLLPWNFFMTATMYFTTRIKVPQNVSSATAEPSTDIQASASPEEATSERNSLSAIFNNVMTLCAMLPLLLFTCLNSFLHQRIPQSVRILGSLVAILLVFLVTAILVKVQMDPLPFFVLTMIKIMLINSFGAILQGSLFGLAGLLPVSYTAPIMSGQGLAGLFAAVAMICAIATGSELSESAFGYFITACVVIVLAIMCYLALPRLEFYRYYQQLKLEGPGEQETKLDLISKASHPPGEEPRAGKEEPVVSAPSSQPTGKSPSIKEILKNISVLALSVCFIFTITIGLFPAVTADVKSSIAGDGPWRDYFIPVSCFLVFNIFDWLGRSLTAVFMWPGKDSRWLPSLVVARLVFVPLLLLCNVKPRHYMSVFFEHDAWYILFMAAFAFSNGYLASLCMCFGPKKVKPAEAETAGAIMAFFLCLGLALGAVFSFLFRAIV", "test": "Inhibitory effect on [^3 H]-nitrobenzylthioinosine (NBI) binding", "parameters": "species or system guinea pig (Hartley strain, male)", "conditions": "guinea pig cerebral cortex; 1.5 nM [^3 H]-NBI; 25° C., 30 minutes; Cheng-Prusoff", "method": "Test Example 2 Inhibitory Effect on [^3 H]-Nitrobenzylthioinosine (NBI) Binding (an indication of adenosine uptake inhibitory activity)\nThe cerebral cortex of a male guinea pig of Hartley strain was homogenized with an ice-cooled 50 mM tris-HCl buffer (pH 7.4) in an amount of 25 times (w/v) that of the tissue. The homogenate was centrifuged (30,000×g, 4° C., 20 mins.), and the supernatant was discarded. To the precipitate was added the same amount of the buffer, followed by homogenization and then centrifugation in the same manner as above. The obtained precipitate was suspended in 20 times as much buffer as the precipitate to prepare a suspension for testing.\nTo a DMSO solution of a test compound were added 1.5 nM of [^3 H]-NBI and 5 mg (wet basis) of the tissue homogenate, and the mixture was allowed to stand at 25° C. for 30 minutes. To the mixture was added 4 ml of an ice-cooled buffer, followed by rapid filtration with suction through a glass filter (GF/C, produced by Whatman Ltd.) or a Ready filter (produced by Beckman Co.) to stop the reaction. The filter was transferred to a scintillation vial, and after drying, Scintisol EX-H was added thereto. The radioactivity was measured with a liquid scintillation counter. The binding inhibitory activity was expressed in terms of an inhibition constant (Ki value) as calculated according to Cheng-Prusoff's formula."}, "[3]": {"system": "ddY-strain male mice", "test": "Acute toxicity test", "type": "in vivo", "conditions": "mortality seven days after administration", "description": "Test Example 4 Acute Toxicity Test\nA test compound was intraperitoneally or orally administered to groups of ddY-strain male mice weighing 20±1 g, each group consisting of three mice."}, "[4]": {"test": "Inhibitory effect on ischemic paw edema in mice", "type": "in vivo, mouse (ddY-strain, male)", "conditions": "30 mg/kg orally 1 hour before 20 min ischemia; for Paw Edema Supression Rate After 20 minutes: 20 minutes after blood recirculation; for Paw Edema Supression Rate After 40 minutes: 40 minutes after blood recirculation; for Paw Edema Supression Rate After 60 minutes: 60 minutes after blood recirculation", "description": "Test Example 3 Inhibitory Effect on Ischemic Paw Edema in Mice\nIschemia followed by reperfusion in the limb of a mouse induces paw edema due to membrane injury in which active oxygen is involved [Arzneim.-Forsch., 41, 469-474 (1991)]. In general, peroxidation of membrane lipid and calcium influx into cells play roles in ischemia-reperfusion injury [Life Science, 29, 1289-1295 (1981); Japan J. Pharmacol., 52, 553-562 (1990)]. It is active oxygen production that triggers these factors, and the source of active oxygen includes endothelial cells and leukocytes [J. Mol. Cell Cardiol., 20 (Suppl. II), 55-63 (1988); Blood, 73, 301-306 (1989)]. […] J. Physiol., 257, H1334-1339 (1989); J. Immunol., 135, 1366-1371 (1985)]. Accordingly, it is believed that a compound effective on an ischemic podedema model in mice as hereinafter described would provide a convenient and useful model for evaluating an adenosine uptake inhibitor.\nExperiments were conducted in accordance with the method described in Arzneim.-Forsch., 41, 469-474 (1991). A test compound was suspended in water and orally given to grouped male mice of ddY-strain weighing 25 to 30 g at a dose of 30 mg/kg. One hour later, the left hind limb was bound with a rubber band for 20 minutes to cause ischemia, and 20, 40 and 60 minutes after blood recirculation, the paw thickness was measured with a pair of calipers (Digimatic Caliper manufactured by Mitsutoyo K.K.). The paw edema was determined as the difference in thickness between the left hind paw (ischemia-treated) and the non-treated right one. Each result was expressed in terms of percent suppression of edema in a test compound group on the basis of the edema in a control group."}}}
{"smiles": "COc1cc2ncnc(N3CCC(n4c(=O)c5cc([N+](=O)[O-])ccc5n(C)c4=O)CC3)c2cc1OC", "note": "[Compound 1, 3-[1-(6,7-Dimethoxy-4-quinazolinyl)-4-piperidinyl]-1,2,3,4-tetrahydro-1-methyl-6-nitro-2,4-dioxoquinazoline]", "values": [{"measurement": "IC50", "setting": "[1]", "value": 42, "unit": "nM"}, {"measurement": "Ki", "setting": "[2]", "value": 18, "unit": "nM"}]}
{"smiles": "CCn1c(=O)n(C2CCN(c3ncnc4cc(OC)c(OC)cc34)CC2)c(=O)c2cc([N+](=O)[O-])ccc21", "note": "[Compound 2, 3-[1-(6,7-Dimethoxy-4-quinazolinyl)-4-piperidinyl]-1-ethyl-1,2,3,4-tetrahydro-6-nitro-2,4-dioxoquinazoline]", "values": [{"measurement": "IC50", "setting": "[1]", "value": 103, "unit": "nM"}, {"measurement": "minimum lethal dose (MLD) i.p.", "setting": "[3]", "value": "> 100", "unit": "mg/kg"}, {"measurement": "minimum lethal dose (MLD) p.o.", "setting": "[3]", "value": "> 300", "unit": "mg/kg"}, {"measurement": "Paw Edema Supression Rate After 20 minutes", "setting": "[4]", "value": "4.1 ± 2.98", "unit": "%"}, {"measurement": "Paw Edema Supression Rate After 40 minutes", "setting": "[4]", "value": "9.0 ± 3.79", "unit": "%"}, {"measurement": "Paw Edema Supression Rate After 60 minutes", "setting": "[4]", "value": "15.5 ± 4.09", "unit": "%"}, {"measurement": "Ki", "setting": "[2]", "value": 18, "unit": "nM"}]}
{"smiles": "CCCn1c(=O)n(C2CCN(c3ncnc4cc(OC)c(OC)cc34)CC2)c(=O)c2cc([N+](=O)[O-])ccc21", "note": "[Compound 3, 3-[1-(6,7-Dimethoxy-4-quinazolinyl)-4-piperidinyl]-1,2,3,4-tetrahydro-6-nitro-2,4-dioxo-1-propyl-quinazoline]", "values": [{"measurement": "IC50", "setting": "[1]", "value": 62, "unit": "nM"}, {"measurement": "minimum lethal dose (MLD) i.p.", "setting": "[3]", "value": "> 100", "unit": "mg/kg"}, {"measurement": "minimum lethal dose (MLD) p.o.", "setting": "[3]", "value": "> 300", "unit": "mg/kg"}, {"measurement": "Paw Edema Supression Rate After 20 minutes", "setting": "[4]", "value": "4.8 ± 4.40", "unit": "%"}, {"measurement": "Paw Edema Supression Rate After 40 minutes", "setting": "[4]", "value": "11.6 ± 2.68", "unit": "%"}, {"measurement": "Paw Edema Supression Rate After 60 minutes", "setting": "[4]", "value": "14.9 ± 3.58", "unit": "%"}, {"measurement": "Ki", "setting": "[2]", "value": 4.3, "unit": "nM"}]}
{"smiles": "CCOC(=O)Cn1c(=O)n(C2CCN(c3ncnc4cc(OC)c(OC)cc34)CC2)c(=O)c2cc([N+](=O)[O-])ccc21", "note": "[Compound 6, 3-[1-(6,7-Dimethoxy-4-quinazolinyl)-4-piperidinyl]-1-ethoxycarbonylmethyl-1,2,3,4-tetrahydro-6-nitro-2,4-dioxoquinazoline]", "values": [{"measurement": "IC50", "setting": "[1]", "value": 462, "unit": "nM"}]}
{"smiles": "COc1cc2ncnc(N3CCC(n4c(=O)c5cc([N+](=O)[O-])ccc5n(Cc5ccccc5)c4=O)CC3)c2cc1OC", "note": "[Compound 8, 1-Benzyl-3-[1-(6,7-dimethoxy-4-quinazolinyl)-4-piperidinyl]-1,2,3,4-tetrahydro-6-nitro-2,4-dioxo-quinazoline]", "values": [{"measurement": "IC50", "setting": "[1]", "value": 295, "unit": "nM"}]}
{"smiles": "COc1cc2ncnc(N3CCC(n4c(=O)[nH]c5ccc([N+](=O)[O-])cc5c4=O)CC3)c2cc1OC", "note": "[Compound 24, 3-[1-(6,7-Dimethoxy-4-quinazolinyl)-4-piperidinyl]-1,2,3,4-tetrahydro-6-nitro-2,4-dioxoquinazoline]", "values": [{"measurement": "IC50", "setting": "[1]", "value": 38, "unit": "nM"}, {"measurement": "Ki", "setting": "[2]", "value": 15, "unit": "nM"}]}
{"smiles": "COc1cc2ncnc(N3CCC(n4c(=O)c5cc(Br)ccc5n(C)c4=O)CC3)c2cc1OC", "note": "[Compound 45, 6-Bromo-3-[1-(6,7-dimethoxy-4-quinazolinyl)-4-piperidinyl]-1,2,3,4-tetrahydro-1-methyl-2,4-dioxo-quinazoline]", "values": [{"measurement": "IC50", "setting": "[1]", "value": 54, "unit": "nM"}, {"measurement": "Ki", "setting": "[2]", "value": 6.9, "unit": "nM"}]}
{"smiles": "COc1cc2ncnc(N3CCC(n4c(=O)c5cc(C)ccc5n(C)c4=O)CC3)c2cc1OC", "note": "[Compound 50, 3-[1-(6,7-Dimethoxy-4-quinazolinyl)-4-piperidinyl]-1,2,3,4-tetrahydro-1,6-dimethyl-2,4-dioxoquinazoline]", "values": [{"measurement": "IC50", "setting": "[1]", "value": 54, "unit": "nM"}, {"measurement": "Ki", "setting": "[2]", "value": 12, "unit": "nM"}]}
{"smiles": "CCCc1ccc2c(c1)c(=O)n(C1CCN(c3ncnc4cc(OC)c(OC)cc34)CC1)c(=O)n2C", "note": "[Compound 55, 3-[1-(6,7-Dimethoxy-4-quinazolinyl)-4-piperidinyl]-1,2,3,4-tetrahydro-1-methyl-2,4-dioxo-6-propyl-quinazoline]", "values": [{"measurement": "IC50", "setting": "[1]", "value": 171, "unit": "nM"}]}
{"smiles": "COc1cc2ncnc(N3CCC(n4c(=O)c5cc(C(C)=O)ccc5n(C)c4=O)CC3)c2cc1OC", "note": "[Compound 63, 6-Acetyl-3-[1-(6,7-dimethoxy-4-quinazolinyl)-4-piperidinyl]-1,2,3,4-tetrahydro-1-methyl-2,4-dioxo-quinazoline]", "values": [{"measurement": "IC50", "setting": "[1]", "value": 88, "unit": "nM"}]}
{"smiles": "COc1ccc2c(c1)c(=O)n(C1CCN(c3ncnc4cc(OC)c(OC)cc34)CC1)c(=O)n2C", "note": "[Compound 69, 3-[1-(6,7-Dimethoxy-4-quinazolinyl)-4-piperidinyl]-1,2,3,4-tetrahydro-6-methoxy-1-methyl-2,4-dioxo-quinazoline]", "values": [{"measurement": "IC50", "setting": "[1]", "value": 157, "unit": "nM"}, {"measurement": "Ki", "setting": "[2]", "value": 11, "unit": "nM"}]}
{"smiles": "COc1cc2nc(C)nc(N3CCC(n4c(=O)c5cc(C)ccc5n(C)c4=O)CC3)c2cc1OC", "note": "[Compound 80, 3-[1-(6,7-Dimethoxy-2-methyl-4-quinazolinyl)-4-piperidinyl]-1,2,3,4-tetrahydro-1,6-dimethyl-2,4-dioxo-quinazoline]", "values": [{"measurement": "IC50", "setting": "[1]", "value": 127, "unit": "nM"}]}
